According to patent US8389739B1, “Modulators of retinoid-related orphan receptor gamma” (Orphagen Pharmaceuticals, priority 2006, dated 2013):
Several values for one entry are separate records, joined by “and”; a condition that tells them apart may be missing. Equal entries are not always repeated. Entries after “also recorded” stand apart in the source; their conditions may differ.

Key:
RORβ (human RORβ) = biological target: T1, RORβ (human RORβ) (Homo sapiens, UniProt Q92753); assay: Transcriptional assay of RORβ as GAL4 hybrid; format: cell-based; details: same format as the GAL4-RORγ assay
T1 construct: human RORβ (NR1F2, aa 201-459); expressed in transfected cells; host or cells: CHO cells, transient transfection
T1 sequence (Q92753 212-470): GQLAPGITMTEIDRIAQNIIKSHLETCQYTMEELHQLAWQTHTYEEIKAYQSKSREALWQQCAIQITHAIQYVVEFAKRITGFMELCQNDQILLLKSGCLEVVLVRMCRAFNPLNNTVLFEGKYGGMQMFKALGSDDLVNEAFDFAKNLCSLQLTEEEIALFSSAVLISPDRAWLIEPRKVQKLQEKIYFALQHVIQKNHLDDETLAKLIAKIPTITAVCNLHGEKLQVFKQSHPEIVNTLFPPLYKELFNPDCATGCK
Method: (§1) This example also describes several additional tests that were commonly performed to confirm the authenticity of a hit to RORγ. These tests also verified the validity of the transcriptional and biochemical assays used. […] In some cases, close analogs of a confirmed hit were obtained by synthesis or purchase from a commercial source. The series of compounds related to the confirmed hit was then tested in the biochemical and transcriptional assays. The rank order of the potency of the compounds was then compared. […] The data imply in turn that the compounds are binding to the same binding pocket. […]
(§2) Four hours after transfection, cells were dislodged with trypsin and seeded into a 384-well plate at 8,000 cells/well using a Titertek Multidrop 384. […] After incubation for 2 hours at 37 degrees centigrade, the conversion of resazurin to resorufin was measured by fluorescence (excitation at 570 nm and emission at 615 nm). […] Percent viability was determined as 2 hour fluorescence, minus background at t=0 hours, normalized to DMSO controls. […] Luminescence is detected with a Victor 2-V plate reader (Perkin-Elmer) and normalized to luciferase activity of DMSO control wells alone.

CHO cells = assay: Cytotoxicity in CHO cells (resazurin conversion); format: cell-based, Chinese Hamster
Method: Four hours after transfection, cells were dislodged with trypsin and seeded into a 384-well plate at 8,000 cells/well using a Titertek Multidrop 384. Edge effects within the 384-well plate were minimized by leaving plates at room temperature for 30 min so that cells plated evenly within each well (Lundholt, Scudder et al. 2003). Plates are maintained at 37° C. in a humidified atmosphere with 7% CO2 overnight. […] Approximately 40 hours later, cytotoxicity in the assay well was characterized by addition of the dye resazurin (O'Brien, Wilson et al. 2000) to a final concentration of 3 μM. After incubation for 2 hours at 37 degrees centigrade, the conversion of resazurin to resorufin was measured by fluorescence (excitation at 570 nm and emission at 615 nm). […] Percent viability was determined as 2 hour fluorescence, minus background at t=0 hours, normalized to DMSO controls. For detection of luciferase activity, media was removed from plates after the measurement of resazurin conversion, and SteadyLite luciferase reagent (Perkin-Elmer) was added (30 μl/well). Luminescence is detected with a Victor 2-V plate reader (Perkin-Elmer) and normalized to luciferase activity of DMSO control wells alone.

SF-1 (human SF-1) = biological target: T2, SF-1 (human SF-1) (Homo sapiens, UniProt Q13285); assay: Transcriptional assay of SF-1 as GAL4 hybrid; format: cell-based; details: same format as the GAL4-RORγ assay
T2 construct: human SF-1 (NR5A1, aa 198-462); expressed in transfected cells; host or cells: CHO cells, transient transfection
T2 sequence (Q13285 198-461 limits assumed): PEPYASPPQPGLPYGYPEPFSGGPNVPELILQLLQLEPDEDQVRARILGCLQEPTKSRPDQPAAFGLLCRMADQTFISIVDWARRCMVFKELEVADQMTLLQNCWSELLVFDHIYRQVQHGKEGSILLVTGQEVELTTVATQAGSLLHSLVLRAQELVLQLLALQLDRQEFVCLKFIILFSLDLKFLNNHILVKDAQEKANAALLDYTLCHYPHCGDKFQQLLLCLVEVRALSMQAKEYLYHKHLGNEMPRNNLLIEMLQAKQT
Method: as §1, §2

EAE = EAE model, C57BL/6 mice immunized with MOG35-55; format: in vivo; details: for median day of onset of symptoms (clinical score 1 or greater): oral gavage twice a day, corn oil vehicle day 18
[1] = test system: splenic TH-17 and TH1 cells; assay: Splenic TH-17 and TH1 cells in MOG-immunized C57BL/6 mice; format: in vivo; details: 100 mg/kg oral gavage for 9 days
Method: C57BL/6 female mice were immunized with 150 μg […] on study day 0. Mice were treated with either OR-1050 at 100 mg/kg or with vehicle (HRC-6) by oral gavage for 9 days starting day O, Splenocytes were collected at Day 9 and stained for TH-17 (CD4^+CD8^−IL17^+) and TH1 (CD4^+CD8^−IFNγ^+) cells. Statistics were performed by Student's t-test.

[2] = Pharmacokinetics of OR-1050 in CD-1 mice, oral gavage; format: in vivo
Method: FIG. 12B. Bioavailability of OR-1050. OR-1050 was dosed in CD-1 mice at […] in HRC-6, a proprietary formulation that is commercially available from Pharmatek (San Diego, Calif.). Blood samples from triplicate animals were tested for levels of OR-1050 at multiple time points.
Pharmacokinetics of OR-1050 in CD-1 mice was analyzed at independent bioanalytical laboratory. Male CD-1 mice were treated via oral gavage with OR-1050 at 5 mg/kg in HRC-6. Blood was collected via retro-orbital puncture in tubes containing sodium heparin anticoagulant at 0, 5, 15, and 30 min, and at 1, 2, 4, 6, 8 and 24 hr after oral administration. The concentration of OR-1050 in plasma was determined using an HPLC/MS/MS method.

effect on the transcription of RORβ (RORβ (human RORβ)) | effect on the transcription of SF-1 (SF-1 (human SF-1)) | blood levels suggested for a higher dosage ([2]; extrapolated to 50 mg/kg) | SMILES | concentration not cytotoxic to CHO cells (CHO cells) | median day of onset of symptoms (clinical score 1 or greater) (EAE; 30 mg/kg total daily dose) | onset of EAE, in words (EAE; 100 mg/kg OR-1050 per day versus vehicle) | median day of onset of symptoms (clinical score 1 or greater) (EAE; 100 mg/kg total daily dose, p<0.05) | progress of disease and weight loss, in words (EAE; high dose (50 mg/kg, 2× per day), FIG. 11A, 11B) | inflammatory infiltration in the spinal cord (EAE; high dose, FIG. 11C, p<0.07, Mann-Whitney) | change in TH1 cells [1] | inhibition of splenic TH-17 cells ([1]; HRC-6, p<0.05, n=8-10) | oral bioavailability, in words ([2]; mouse, in vivo, po)
no effects | no effects | – | O=S(=O)(c1ccccc1)N(CC(F)(F)F)c1ccc(C(O)(C(F)(F)F)C(F)(F)F)cc1 [Compound T0901317, N-(2,2,2-Trifluoro-ethyl)-N-[4-(2,2,2-trifluoro-1-hydroxy-1-trifluoromethyl-ethyl)-phenyl]-benzenesulfonamide, reference compound] | < 10 µM | – | – | – | – | – | – | – | –
no effects | no effects | 1 μg/ml and ~2 μM | CCN(c1ccc(C(O)(C(F)(F)F)C(F)(F)F)cc1)S(=O)(=O)c1ccc([N+](=O)[O-])cc1 [OR-1050, N-Ethyl-4-nitro-N-[4-(2,2,2-trifluoro-1-hydroxy-1-trifluoromethyl-ethyl)-phenyl]-benzenesulfonamide] | 50 µM | 16 days | slows the onset of EAE; also recorded: significantly (p<0.05) delayed | 26 days | inhibits progress of the disease and weight loss | reduced | no change in TH1 cells | 29% | modest bioavailability; also recorded: orally-bioavailable; also recorded: orally bioavailable
